Experimental data from ChEMBL document CHEMBL1201862, “PubChem BioAssay data set” (2004).
Activity calls are given as the source filed them.

Experiments:
Major prion protein = Major prion protein (Homo sapiens, UniProt P04156); type: functional, cell-based
cells [1] = experiment: cells
[2] = viability of HCT116 lacking mutant beta-catenin – cell-based, human colon tumor, dose response (AID 1045); type: functional;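 also: HCT116 colon tumor cells with beta catenin knocked out; cells exposed to compound for 60 hours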
[3] = cytotoxicity in MITF-independent A375 cells – cell-based, CellTiter-Glo luminescence, dry powder, set 4, counter-screen for MITF inhibitor project, dose response (AID 624364); type: functional; details: A-375;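 also: A375 melanoma cells are MITF independent so this is a counter screen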
[4] = molecular target: T1, Microphthalmia-associated transcription factor (Homo sapiens, UniProt O75030); experiment: reducers of TRPM1 reporter luminescence, concentration series – cell-based, SK-MEL-5, cherry-picked, set 3, MITF inhibitor project, dose response (AID 493073); type: functional;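 also: SK-MEL-5 melanoma cells with luciferase driven by the MITF target TRPM1 promoter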
T1 sequence (O75030 whole entry): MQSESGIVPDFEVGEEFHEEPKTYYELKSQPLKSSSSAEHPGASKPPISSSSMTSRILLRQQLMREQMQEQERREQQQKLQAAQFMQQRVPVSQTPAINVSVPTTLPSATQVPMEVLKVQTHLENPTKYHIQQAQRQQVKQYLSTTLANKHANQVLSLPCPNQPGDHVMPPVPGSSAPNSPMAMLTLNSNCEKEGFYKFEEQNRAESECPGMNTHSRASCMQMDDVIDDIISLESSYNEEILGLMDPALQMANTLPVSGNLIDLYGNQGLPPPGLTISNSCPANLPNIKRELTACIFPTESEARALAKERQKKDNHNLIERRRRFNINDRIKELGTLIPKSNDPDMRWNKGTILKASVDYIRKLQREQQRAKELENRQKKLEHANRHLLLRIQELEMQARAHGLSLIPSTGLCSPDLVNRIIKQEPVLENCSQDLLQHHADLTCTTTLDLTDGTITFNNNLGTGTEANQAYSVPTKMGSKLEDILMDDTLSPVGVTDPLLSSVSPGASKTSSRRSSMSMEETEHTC

[5] = viability of PTEN-deleted HCT116 cells – cell-based, HCT116 PTEN knockout, dose response (AID 1047); type: functional;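 also: HCT116 colon tumor cells with PTEN knocked out; cells exposed to compound for 60 hours before readout; potency for loss of cell viability measured by luminescence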
[6] = viability loss in MITF-independent A375 cells – cell-based, CellTiter-Glo luminescence, dry powder, set 2, counter-screen for MITF inhibitor project, dose response (AID 624489); type: functional; details: A-375;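 also: actives are compounds lowering A375 viability meaning general cytotoxicity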
INS1 = experiment: INS-1E survival protection against cytokine death – cell-based, luminescence, retest, dose response (AID 449756); type: functional; details: Rattus norvegicus;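 also: cell death triggered by IL-1 beta plus TNF-alpha plus IFN-gamma mixture; protective hits raise ATP signal compared with cytokine alone wells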
[7] = molecular target: T2, Sentrin-specific protease 8 (Homo sapiens, UniProt Q96LD8); type: functional
T2 sequence (Q96LD8 whole entry): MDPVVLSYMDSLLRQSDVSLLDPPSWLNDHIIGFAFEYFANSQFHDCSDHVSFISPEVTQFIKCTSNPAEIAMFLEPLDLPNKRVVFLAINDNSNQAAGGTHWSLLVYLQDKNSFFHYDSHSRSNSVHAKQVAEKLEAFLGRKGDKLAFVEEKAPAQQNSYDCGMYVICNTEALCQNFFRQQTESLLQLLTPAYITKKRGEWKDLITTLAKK

[8] = molecular target: Tyrosyl-DNA phosphodiesterase 2 (Homo sapiens, UniProt O95551); experiment: potency against TDP2 phosphodiesterase activity – biochemical, epi absorbance, IC50, dose response (AID 743297)
[9] = molecular target: T2, Sentrin-specific protease 8; type: functional; remark: listed apart in the source
[10] = inhibition of ADAM10 peptide cleavage – biochemical, FRET peptide substrate, recombinant human ADAM10, selectivity assay for ADAM17 exosite inhibitor project, dose response (AID 743259);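 also: ADAM10 enzyme cleaving a FRET peptide substrate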
[11] = molecular target: T3, Disintegrin and metalloproteinase domain-containing protein 17 (Homo sapiens, UniProt P78536); experiment: exosite inhibitors of ADAM17, dose response, biochemical (AID 743260)
[12] = viability loss in HepG2 liver cells – cell-based, ATP luminescence, cherry-pick, set 6, cytotoxicity control, dose response (AID 1053125); type: functional
cells [13] = details: HEK293
Caspase-6 = Caspase-6 (Homo sapiens, UniProt P55212); experiment: inhibition of CASP6 peptide cleavage – biochemical, VEID-R110 fluorescence, cherry-pick, dose response (AID 720632)
[14] = Luminescence Cell-Based Dose Response HTS to Identify Inhibitors of 5'UTR Stem-Loop Driven Prion Protein mRNA Translation in H4 Neuroglioblastoma Cells. [Related pubchem assays: 1827 (Project Summary), 1813 (Primary HTS)]; type: functional
[15] = alpha-synuclein stem-loop luciferase translation blockers – H4 neuroglioma cells, luminescence, confirmation (AID 1988); type: functional, cell-based
[16] = molecular target: T4, Nuclear receptor subfamily 0 group B member 1 (Homo sapiens, UniProt P51843); type: functional, cell-based;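 also: HEK293T cells transfected with SF-1 and DAX-1 plus StAR promoter luciferase reporter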
T4 sequence (P51843 whole entry): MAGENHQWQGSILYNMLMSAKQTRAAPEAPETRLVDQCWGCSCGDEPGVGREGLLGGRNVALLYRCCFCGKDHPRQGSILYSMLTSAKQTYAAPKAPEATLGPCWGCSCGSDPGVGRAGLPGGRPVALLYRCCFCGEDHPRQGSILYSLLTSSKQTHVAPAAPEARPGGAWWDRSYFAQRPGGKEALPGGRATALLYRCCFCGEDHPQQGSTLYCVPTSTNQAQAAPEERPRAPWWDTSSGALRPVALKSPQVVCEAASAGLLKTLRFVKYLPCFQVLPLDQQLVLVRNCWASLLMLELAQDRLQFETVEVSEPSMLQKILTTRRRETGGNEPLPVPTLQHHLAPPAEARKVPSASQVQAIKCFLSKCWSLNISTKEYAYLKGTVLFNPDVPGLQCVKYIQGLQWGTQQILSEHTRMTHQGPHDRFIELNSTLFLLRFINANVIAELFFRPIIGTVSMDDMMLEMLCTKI

[17] = luciferase reporter signal suppression in cells – H4 neuroglioma cells, luminescence, dose response (AID 1990); type: functional, cell-based
cells [18] = type: functional, cell-based
[19] = potency of ADAM10 substrate cleavage blockers – biochemical, QFRET, dose response (AID 743254);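 also: ADAM10 enzyme with the DM2 quenched FRET peptide as substrate; EDANS fluorescence gain as the protease cuts the substrate; inhibitor potency against ADAM10 proteolytic activity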
[20] = molecular target: T3, Disintegrin and metalloproteinase domain-containing protein 17; experiment: inhibition of ADAM17 substrate cleavage – biochemical, quenched FRET substrate, counter-screen for ADAM10 exosite inhibitor project, dose response (AID 743253)
[21] = molecular target: Induced myeloid leukemia cell differentiation protein Mcl-1 (Homo sapiens, UniProt Q07820); type: functional

COc1ccc(-c2nc3ccc(Br)cn3c2Cc2cccc(F)c2)cc1OC
IC50 (Major prion protein): 6.96 µM (active) | IC50 (cells [1]): > 138 µM (inactive)

CCN1c2ccccc2NC2N=C(OC)C(c3ccccc3)C21 (stereo not drawn)
EC50 [2]: 7.49 µM (active) | AC50 [3]: 50.4 µM (active) | AC50 [4]: 7.51 µM (active) | EC50 [5]: 8.12 µM (active) | AC50 [6]: 29.7 µM (active) | AC50 (INS1): 1.26 µM (active)

Cc1ccc(C(=O)Nc2c(-c3ccc(Cl)cc3)n[nH]c2O)cc1
IC50 [7]: 39.9 µM (active) | IC50 [8]: > 128 µM (inactive) | IC50 [9]: 63.5 µM (inactive)

c1ccc(-n2c(SCc3cccc4ccccc34)nnc2-c2ccccn2)cc1
IC50 [10]: 24.1 µM (inactive) | IC50 [11]: > 69.4 µM (inactive)

S=C(NCC1CCCO1)N1CCN(Cc2ccccc2Cl)CC1 (stereo not drawn)
AC50 [12]: 38.4 µM (active) | AC50 (cells [13]): > 24 µM (inactive)

O=C(O)CCCC(=O)OCCCc1cc2ccccc2c(=O)o1
AC50 (Caspase-6): 1.51 µM (active)

COc1ccc(NC(=O)NNC(=O)COc2ccc3cc(Br)ccc3c2)cc1OC
IC50 (Major prion protein): 5.33 µM (active) | IC50 (cells [1]): > 138 µM (inactive)

CN1CCN(c2ccc(NC(=O)c3ccc4ccccc4c3)cc2)CC1
EC50 [14]: 8.96 µM (inconclusive) | EC50 [15]: 9.94 µM (inconclusive) | IC50 [16]: > 67.6 µM (inactive) | EC50 [17]: 7.8 µM (inconclusive) | IC50 (cells [18]): > 67.6 µM (inactive)

CN(C)c1ccc(NC(=O)c2cn(-c3ccccc3)nc2-c2cccs2)cc1
IC50 [19]: > 69.5 µM (inactive) | IC50 [20]: > 69.5 µM (inactive) | IC50 [21]: 2.48 µM (not active)

O=C1C(NCCCN2CCOCC2)=C(Nc2ccccc2)C(=O)c2ccccc21
AC50 [3]: > 70 µM (inactive) | AC50 [6]: > 70 µM (inactive)
